# Data as given in article PMC5392334, “Discovery and characterization of a novel irreversible EGFR mutants selective and potent kinase inhibitor CHMFL-EGFR-26 with a distinct binding mode” (Oncotarget, 2017).
# Key:
# Assay in all cases: KinomeScan
# Assay type in all cases: binding
# Details in all cases: read-out: % control
# PKMYT1 = target: T1, PKMYT1 (Homo sapiens, UniProt Q99640)
# T1 construct: purchased DiscoveRx KINOMEscan
# CDK2 = target: T2, CDK2 (Homo sapiens, UniProt P24941)
# T2 construct: purchased DiscoveRx KINOMEscan
# [1] = target: T3, ABL1(Q252H)-phosphorylated (Homo sapiens, UniProt P00519, Q252H)
# T3 construct: purchased DiscoveRx KINOMEscan
# TIE1 = target: T4, TIE1 (Homo sapiens, UniProt P35590)
# T4 construct: purchased DiscoveRx KINOMEscan
# CSNK2A1 = target: T5, CSNK2A1 (Homo sapiens, UniProt P68400)
# T5 construct: purchased DiscoveRx KINOMEscan
# MYLK4 = target: T6, MYLK4 (Homo sapiens, UniProt Q86YV6)
# T6 construct: purchased DiscoveRx KINOMEscan
# [2] = target: T7, JAK1(JH2domain-pseudokinase) (Homo sapiens, UniProt P23458)
# T7 construct: JAK1(JH2domain-pseudokinase); purchased DiscoveRx KINOMEscan
# TSSK3 = target: T8, TSSK3 (Homo sapiens, UniProt Q96PN8)
# T8 construct: purchased DiscoveRx KINOMEscan
# TAK1 = target: T9, TAK1 (Homo sapiens, UniProt O43318)
# T9 construct: purchased DiscoveRx KINOMEscan
# T9 sequence (O43318 whole entry): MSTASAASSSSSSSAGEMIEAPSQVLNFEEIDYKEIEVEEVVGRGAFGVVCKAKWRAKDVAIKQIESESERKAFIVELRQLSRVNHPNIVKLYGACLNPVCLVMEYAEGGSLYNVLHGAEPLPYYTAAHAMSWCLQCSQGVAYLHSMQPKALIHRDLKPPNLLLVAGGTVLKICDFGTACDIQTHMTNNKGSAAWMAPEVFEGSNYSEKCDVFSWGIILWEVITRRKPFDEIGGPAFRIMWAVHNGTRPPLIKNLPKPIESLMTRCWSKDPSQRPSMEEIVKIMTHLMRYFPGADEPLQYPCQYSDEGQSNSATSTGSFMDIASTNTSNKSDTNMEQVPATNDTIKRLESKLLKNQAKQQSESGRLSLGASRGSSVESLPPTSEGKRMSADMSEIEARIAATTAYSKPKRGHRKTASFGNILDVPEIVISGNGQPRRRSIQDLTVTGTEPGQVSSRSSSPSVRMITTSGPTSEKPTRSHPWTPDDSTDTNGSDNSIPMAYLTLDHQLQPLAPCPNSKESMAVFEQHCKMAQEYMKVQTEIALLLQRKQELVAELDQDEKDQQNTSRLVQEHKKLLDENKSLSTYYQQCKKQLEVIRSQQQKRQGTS
# T6 sequence (Q86YV6 whole entry): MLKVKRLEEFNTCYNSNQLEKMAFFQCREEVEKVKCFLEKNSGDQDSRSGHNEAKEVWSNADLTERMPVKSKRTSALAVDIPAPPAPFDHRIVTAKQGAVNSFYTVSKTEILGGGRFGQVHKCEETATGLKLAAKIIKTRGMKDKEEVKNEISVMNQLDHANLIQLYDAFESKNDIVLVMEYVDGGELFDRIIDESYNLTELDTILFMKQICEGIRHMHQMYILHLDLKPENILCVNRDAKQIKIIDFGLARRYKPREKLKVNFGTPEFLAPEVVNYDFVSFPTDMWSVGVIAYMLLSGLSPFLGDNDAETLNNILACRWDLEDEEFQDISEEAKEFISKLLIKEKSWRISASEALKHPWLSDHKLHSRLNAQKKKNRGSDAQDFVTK
# T7 sequence (P23458 583-855 limits assumed): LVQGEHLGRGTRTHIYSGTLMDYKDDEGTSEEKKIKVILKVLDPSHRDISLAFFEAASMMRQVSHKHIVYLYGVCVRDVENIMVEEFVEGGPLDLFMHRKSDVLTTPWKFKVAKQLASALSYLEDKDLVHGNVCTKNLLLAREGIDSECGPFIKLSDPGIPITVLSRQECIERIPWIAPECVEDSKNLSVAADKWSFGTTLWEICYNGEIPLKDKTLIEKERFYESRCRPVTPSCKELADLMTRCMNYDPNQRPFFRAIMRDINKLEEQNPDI
# T4 sequence (P35590 22-1138): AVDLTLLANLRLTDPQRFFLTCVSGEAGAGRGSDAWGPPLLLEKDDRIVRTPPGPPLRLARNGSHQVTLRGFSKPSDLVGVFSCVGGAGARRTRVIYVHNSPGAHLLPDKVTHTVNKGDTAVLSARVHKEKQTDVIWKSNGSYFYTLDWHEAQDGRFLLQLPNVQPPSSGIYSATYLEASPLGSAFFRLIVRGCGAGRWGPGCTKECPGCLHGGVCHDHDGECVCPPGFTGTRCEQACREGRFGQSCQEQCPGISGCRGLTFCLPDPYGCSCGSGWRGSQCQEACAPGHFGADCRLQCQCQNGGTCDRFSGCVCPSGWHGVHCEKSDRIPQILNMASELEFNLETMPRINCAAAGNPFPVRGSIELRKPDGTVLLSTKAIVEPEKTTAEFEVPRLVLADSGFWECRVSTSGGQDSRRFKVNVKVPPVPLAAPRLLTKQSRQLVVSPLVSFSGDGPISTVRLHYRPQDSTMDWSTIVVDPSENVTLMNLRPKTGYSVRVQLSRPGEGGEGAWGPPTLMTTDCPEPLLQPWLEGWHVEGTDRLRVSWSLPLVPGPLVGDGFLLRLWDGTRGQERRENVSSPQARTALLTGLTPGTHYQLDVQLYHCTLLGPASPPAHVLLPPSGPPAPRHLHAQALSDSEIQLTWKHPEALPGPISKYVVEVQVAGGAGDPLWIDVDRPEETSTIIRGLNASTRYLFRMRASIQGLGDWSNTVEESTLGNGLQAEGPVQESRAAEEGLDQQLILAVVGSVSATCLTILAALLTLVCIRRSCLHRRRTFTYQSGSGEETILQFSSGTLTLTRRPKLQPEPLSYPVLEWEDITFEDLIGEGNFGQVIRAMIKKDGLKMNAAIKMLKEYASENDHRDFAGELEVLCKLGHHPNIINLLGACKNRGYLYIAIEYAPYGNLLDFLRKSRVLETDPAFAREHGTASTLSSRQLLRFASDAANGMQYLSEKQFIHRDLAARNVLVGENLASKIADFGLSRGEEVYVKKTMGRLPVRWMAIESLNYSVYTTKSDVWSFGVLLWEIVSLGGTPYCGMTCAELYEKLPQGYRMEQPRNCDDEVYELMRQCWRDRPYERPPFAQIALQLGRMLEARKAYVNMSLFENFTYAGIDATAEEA
# T1 sequence (Q99640 whole entry): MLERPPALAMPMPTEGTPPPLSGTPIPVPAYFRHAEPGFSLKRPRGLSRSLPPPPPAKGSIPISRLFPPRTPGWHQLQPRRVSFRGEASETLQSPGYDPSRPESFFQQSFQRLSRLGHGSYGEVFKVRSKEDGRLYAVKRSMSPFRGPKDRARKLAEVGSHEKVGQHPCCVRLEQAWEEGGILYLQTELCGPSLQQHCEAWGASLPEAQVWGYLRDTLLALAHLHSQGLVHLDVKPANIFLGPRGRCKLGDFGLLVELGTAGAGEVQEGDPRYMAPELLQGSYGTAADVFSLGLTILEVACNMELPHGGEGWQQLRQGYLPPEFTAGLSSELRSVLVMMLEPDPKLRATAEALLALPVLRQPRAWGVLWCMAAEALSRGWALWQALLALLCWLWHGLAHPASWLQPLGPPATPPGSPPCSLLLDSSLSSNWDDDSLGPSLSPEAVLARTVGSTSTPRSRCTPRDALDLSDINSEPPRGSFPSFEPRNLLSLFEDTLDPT
# T8 sequence (Q96PN8 whole entry): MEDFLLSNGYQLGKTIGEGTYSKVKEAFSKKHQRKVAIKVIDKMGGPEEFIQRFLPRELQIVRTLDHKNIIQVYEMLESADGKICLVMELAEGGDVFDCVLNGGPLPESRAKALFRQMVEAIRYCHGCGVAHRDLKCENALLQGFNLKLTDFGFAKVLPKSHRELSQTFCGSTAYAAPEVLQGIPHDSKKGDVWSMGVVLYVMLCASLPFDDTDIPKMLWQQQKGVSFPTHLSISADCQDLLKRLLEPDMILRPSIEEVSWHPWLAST
# T5 sequence (P68400 whole entry): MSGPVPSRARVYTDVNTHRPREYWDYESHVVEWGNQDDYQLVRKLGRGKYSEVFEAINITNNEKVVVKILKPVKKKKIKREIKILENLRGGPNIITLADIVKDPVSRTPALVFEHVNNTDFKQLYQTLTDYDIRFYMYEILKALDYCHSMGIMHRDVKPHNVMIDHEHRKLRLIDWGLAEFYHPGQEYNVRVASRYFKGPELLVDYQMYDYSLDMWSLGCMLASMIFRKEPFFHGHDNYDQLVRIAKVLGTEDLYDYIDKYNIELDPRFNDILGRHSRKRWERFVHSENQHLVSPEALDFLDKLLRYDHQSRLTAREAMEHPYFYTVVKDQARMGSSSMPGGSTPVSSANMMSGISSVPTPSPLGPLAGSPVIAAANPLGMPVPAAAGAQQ
structure (smiles),measurement,setting,value
C=CC(=O)N1CCC[C@@H](n2nc(-c3ccc(OCc4cccc(C)n4)c(Cl)c3)c3c(N)ncnc32)C1 [CHMFL-EGFR-26],remaining binding at 1 µM,PKMYT1,92%
same,remaining binding at 1 µM,CDK2,100%
same,remaining binding at 1 µM,[1],100%
same,remaining binding at 1 µM,TIE1,69%
same,remaining binding at 1 µM,CSNK2A1,100%
same,remaining binding at 1 µM,MYLK4,100%
same,remaining binding at 1 µM,[2],84%
same,remaining binding at 1 µM,TSSK3,100%
same,remaining binding at 1 µM,TAK1,100%
